Experimental data: US20050271676A1, “Inducing cellular immune responses to human immunodeficiency virus-1 using peptide and nucleic acid compositions” (Epimmune Inc., priority 1993, published 2005)
No end group written: not given here.

Key:
HLA-A*0301 = target: T1, HLA-A*0301 (Homo sapiens, UniProt P04439); test: purified HLA class I binding assay, A*0301
T1 construct: endogenous in cells; host or cells: GM3107

HLA-A*3101 = HLA-A*3101 (Homo sapiens, UniProt P04439, A270S/D185E/E176V/E277Q/F33T/G231S/G80R/H175R/I121M/I218V/I322F/K168Q/L300P/L318F/M331R/P217A/Q94H/R138Q/T323A/T345S/T97I/V358M); test: purified HLA class I binding assay, A*3101
HLA-A*3301 = HLA-A*3301 (Homo sapiens, UniProt P04439, A270S/D185E/E176V/E277Q/E87N/F33T/G231S/H175R/I121M/I218V/I322F/K168Q/K210R/L300P/L318F/M331R/P217A/Q86R/Q94H/R138Q/T323A/T345S/T97I/V358M/Y195H); test: purified HLA class I binding assay, A*3301
HLA-A*6801 = HLA-A*6801 (Homo sapiens, UniProt P04439, A269V/D185E/E176V/E277Q/E87N/F33Y/G231S/I121M/I166T/I218V/L180W/L300P/L318F/N151K/P208A/P217A/Q86R/R169H/T345S); test: purified HLA class I binding assay, A*6801
HLA-A*1101 = HLA-A*1101 (Homo sapiens, UniProt P04439, A114D/D185E/E176A/F33Y/L180Q/S129P/T187R); test: purified HLA class I binding assay, A*1101
HLA-DRB1*0301 (DR3) = target: T2, HLA-DRB1*0301 (DR3) (Homo sapiens, UniProt P01903+P01911, A100K/A102G/A103R/A169T/F55Y/I96L/K41T/L162R/M171V/P40S/Q125H/Q178H/Q39Y/R42S/S66N/T106N/T262R/W38E/Y61H); test: purified HLA class II binding assay, DRB1*0301 (DR3), pH 4.5
T2 construct: endogenous in cells; host or cells: MAT
T2 sequence (P01903 26-254 partner, other chains not shown): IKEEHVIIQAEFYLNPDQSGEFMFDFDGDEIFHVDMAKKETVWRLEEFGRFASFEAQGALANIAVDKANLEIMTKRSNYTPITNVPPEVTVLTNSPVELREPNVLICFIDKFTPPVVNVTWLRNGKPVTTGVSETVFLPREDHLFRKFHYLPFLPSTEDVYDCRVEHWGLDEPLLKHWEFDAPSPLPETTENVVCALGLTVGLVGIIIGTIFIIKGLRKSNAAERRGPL

HLA-DRB1*0901 (DR9) = target: T3, HLA-DRB1*0901 (DR9) (Homo sapiens, UniProt P01903+P01911, A100R/A103E/D57H/D86V/F55Y/F60I/F76Y/I96F/K127E/L162R/M171V/P40D/Q125H/Q99R/R33Q/R42F/S133A/S66N/T210M/V115G/W38K/Y107V/Y59G/Y89S); test: biochemical; type: binding
T3 construct: endogenous in cells

HLA-DRB1*1101 (DR5w11) = target: T4, HLA-DRB1*1101 (DR5w11) (Homo sapiens, UniProt P01903+P01911, A100R/A169T/A87E/I96F/K41T/L162R/M171V/P40S/Q125H/Q178H/Q39Y/Q99D/R42S/S66Y/T262R/V115G/W38E); test: biochemical; type: binding
T4 construct: endogenous in cells
T4 sequence (P01903 26-254, other chains not shown): as the sequence (P01903 26-254 partner, other chains not shown) above

HLA-DRB1*1201 (DR5w12) = target: T5, HLA-DRB1*1201 (DR5w12) (Homo sapiens, UniProt P01903+P01911, A100R/A169T/D57E/D86V/F55L/H45Y/K41T/L162R/M171V/P40S/Q125H/Q178H/Q39Y/Q99D/R42G/S66L/T262R/V114A/V67L/W38E/Y59H/Y61H/Y89S); test: purified HLA class II binding assay, DRB1*1201 (DR5w12)
T5 construct: endogenous in cells

HLA-DRB1*1302 (DR6w19) = HLA-DRB1*1302 (DR6w19) (Homo sapiens, UniProt P01903+P01911, A100E/A169T/K41T/L162R/M171V/P40S/Q125H/Q178H/Q39Y/Q99D/R42S/S66N/T262R/V115G/W38E/Y61H); test: purified HLA class II binding assay, DRB1*1302 (DR6w19)
HLA-DRB1*1501 (DR2w2β1) = target: T6, HLA-DRB1*1501 (DR2w2β1) (Homo sapiens, UniProt P01903+P01911); test: purified HLA class II binding assay, DRB1*1501 (DR2w2β1)
T6 construct: expressed in transfected cells

HLA-DRB5*0101 (DR2w2β2) = target: T7, HLA-DRB5*0101 (DR2w2β2) (Homo sapiens, UniProt P01903+Q30154); test: biochemical; type: binding
T7 construct: expressed in transfected cells

HLA-A*0101 = HLA-A*0101 (Homo sapiens, UniProt P04439, A114D/A174V/A182V/D101N/D185E/E176A/E190D/L180R/Q94H/R68K/S129P/T187R/V100A/V91M/W191G); test: biochemical; type: binding
HLA-B*5401 = HLA-B*5401 (Homo sapiens, UniProt P01889, A329T/C349S/D138N/D201E/E176V/E187T/E204Q/E69G/I76V/K202T/L119W/R155S/R180L/S121T/S35A/S48A/V127L/V306I/V36M/Y140L); test: biochemical
HLA-DRB1*0401 (DR4w4) = target: T8, HLA-DRB1*0401 (DR4w4) (Homo sapiens, UniProt P01903+P01911, A100K/A169T/F76Y/I96L/K127E/L162R/M171V/N62H/P40V/Q125Y/R42H/S133A/S149N/S66Y/V115G/V209L/W38E); test: purified HLA class II binding assay, DRB1*0401 (DR4w4); conditions: HIV DR super motif peptides; unit not given
T8 construct: endogenous in cells; host or cells: Preiss
T8 sequence (P01903 26-254 partner, other chains not shown): as above

HLA-DRB1*0701 (DR7) = target: T9, HLA-DRB1*0701 (DR7) (Homo sapiens, UniProt P01903+P01911, A100R/A102G/A103Q/D57E/D86V/E43K/F76Y/K127E/L162R/M171V/P40G/Q125H/Q99D/R33Q/R42Y/R54Q/S133A/S66F/T210M/V115G/Y107V/Y59L/Y89S); test: biochemical; type: binding
T9 construct: endogenous in cells; host or cells: Pitout

HLA-DRB1*0802 (DR8w2) = target: T10, HLA-DRB1*0802 (DR8w2) (Homo sapiens, UniProt P01903+P01911, A100R/A103L/A169T/F76Y/H45Y/I96F/K41T/L162R/M171V/P40S/Q125H/Q178H/Q39Y/Q99D/R218S/R42G/S66Y/V115G/W38E); test: biochemical; type: binding
T10 construct: endogenous in cells

HLA-DRB1*0405 (DR4w15) = HLA-DRB1*0405 (DR4w15) (Homo sapiens, UniProt P01903+P01911, A100R/A169T/D86S/F76Y/I96L/K127E/L162R/M171V/N62H/P40V/Q125Y/R42H/S133A/S149N/S66Y/V115G/V209L/W38E); test: purified HLA class II binding assay, DRB1*0405 (DR4w15)
[1] = HIV DR super motif peptides, unit not given

KLAGRWPVK [1069.44]
IC50 (HLA-A*0301): 8.5 nM | IC50 (HLA-A*3101): 500 nM | IC50 (HLA-A*3301): 72500 nM | IC50 (HLA-A*6801): 80000 nM

NTPVFAIKK [1273.02]
IC50 (HLA-A*1101): 100 nM | IC50 (HLA-A*3101): 30000 nM | IC50 (HLA-A*3301): 48300 nM

CC[C@H](C)[C@H](NC(=O)CNC(=O)[C@H](CCCCN)NC(=O)[C@H](Cc1c[nH]cn1)NC(=O)[C@H](C)NC(=O)[C@@H]1CCCN1C(=O)[C@@H](NC(=O)[C@H](Cc1c[nH]c2ccccc12)NC(=O)[C@H](C)NC(=O)[C@H](CC(C)C)NC(=O)[C@H](Cc1ccc(O)cc1)NC(=O)[C@@H](NC(=O)[C@@H](N)CCCCN)C(C)C)C(C)C)C(=O)NCC(=O)NCC(=O)O [Peptide 1280.03]
IC50 (HLA-DRB1*0301 (DR3)): > 20000 nM | IC50 (HLA-DRB1*0901 (DR9)): 250 nM | IC50 (HLA-DRB1*1101 (DR5w11)): 71 nM | IC50 (HLA-DRB1*1201 (DR5w12)): 12600 nM | IC50 (HLA-DRB1*1302 (DR6w19)): 2500 nM | IC50 (HLA-DRB1*1501 (DR2w2β1)): 25 nM | IC50 (HLA-DRB5*0101 (DR2w2β2)): 24 nM

CC[C@H](C)[C@H](NC(=O)[C@H](Cc1ccccc1)NC(=O)[C@@H](NC(=O)[C@H](C)N)C(C)C)C(=O)N[C@@H](Cc1c[nH]cn1)C(=O)N[C@@H](CC(N)=O)C(=O)N[C@@H](Cc1ccccc1)C(=O)N[C@@H](CCCCN)C(=O)N[C@@H](CCCNC(=N)N)C(=O)O [1193.03]
IC50 (HLA-A*0301): 64.7 nM | IC50 (HLA-A*1101): 3.3 nM | IC50 (HLA-A*3101): 5.1 nM | IC50 (HLA-A*3301): 107 nM

VTVLDVGDAY [Peptide 1069.26]
IC50 (HLA-A*0101): 439 nM

IPIHYCAPA [1296.01]
IC50 (HLA-B*5401): 3.7 nM

ASGYIEAEVIPAFTG
DR3 binding (HLA-DRB1*0301 (DR3); [1]): −0.0043 | DR4w4 binding (HLA-DRB1*0401 (DR4w4)): 0.2300 | DR7 binding (HLA-DRB1*0701 (DR7)): 0.0710 | DR8w2 binding (HLA-DRB1*0802 (DR8w2)): −0.0003 | DR9 binding (HLA-DRB1*0901 (DR9)): 0.0320 | DR5w11 binding (HLA-DRB1*1101 (DR5w11)): 0.0020 | DR5w12 binding (HLA-DRB1*1201 (DR5w12); [1]): −0.0045 | DR6w19 binding (HLA-DRB1*1302 (DR6w19); [1]): 0.0400 | DR2 wβ1 binding (HLA-DRB1*1501 (DR2w2β1); [1]): −0.0003 | DR2w2β2 binding (HLA-DRB5*0101 (DR2w2β2)): −0.0021

QHLLQLTVWGIKQLQ [Peptide 27.0297]
IC50 (HLA-DRB1*0301 (DR3)): > 20000 nM | IC50 (HLA-DRB1*0701 (DR7)): 44 nM | IC50 (HLA-DRB1*0802 (DR8w2)): 907 nM | IC50 (HLA-DRB1*1302 (DR6w19)): 350 nM | IC50 (HLA-DRB1*1501 (DR2w2β1)): 21 nM | IC50 (HLA-DRB5*0101 (DR2w2β2)): 690 nM

QKQITKIQNFRVYYR [Peptide 27.0377]
IC50 (HLA-DRB1*0301 (DR3)): > 20000 nM | IC50 (HLA-DRB1*0405 (DR4w15)): 49 nM | IC50 (HLA-DRB1*0701 (DR7)): 25 nM | IC50 (HLA-DRB1*0802 (DR8w2)): 75 nM | IC50 (HLA-DRB1*0901 (DR9)): 577 nM | IC50 (HLA-DRB1*1101 (DR5w11)): 53 nM | IC50 (HLA-DRB1*1201 (DR5w12)): 124 nM | IC50 (HLA-DRB1*1302 (DR6w19)): 25 nM | IC50 (HLA-DRB1*1501 (DR2w2β1)): 3.4 nM | IC50 (HLA-DRB5*0101 (DR2w2β2)): 80 nM

TIKIGGQLK [1273.05]
IC50 (HLA-A*0301): 40.7 nM | IC50 (HLA-A*3101): 18000 nM | IC50 (HLA-A*3301): 36300 nM

QKEPPFLWMG
A*0101 (binding affinity ratio) (HLA-A*0101): 0.0004
